Like-named read-outs stand apart in the source and are kept apart here. Some results are limits rather than exact numbers.

We go through three molecules from US20140141069A1, “BETA-GUANIDINOPROPIONIC ACID FOR THE TREATMENT OF HYPERTENSION” (priority 2011, published 2014).

The test system of data set [1] is creatine kinase. Conditions: equimolar quantities of DNFB, cited from earlier work.
For data set [2], the system named is SHR. Briefly: Tail cuff blood pressure in SHR on a diet with β-GPA versus standard diet (Example 5). The class given is in vivo, rat. The method, then:
Male, non-obese, normoglycaemic, 16-weeks-old SHR without lipid abnormalities were randomly assigned to a diet with β-GPA versus a standard diet without β-GPA (N=8 per group). Blood pressure was measured weekly with the tail cuff method. All blood pressure measurements were performed unblinded under equal conditions. Body temperature was kept constant during the measurements at 36-38° C. […] Data are expressed as mean (SEM).

For data set [3], the system named is SHR mesenteric arteries. Briefly: Vasodilation/contractility of SHR mesenteric arteries in vitro in a wire myograph with the CK-inhibitor DNFB. On the set-up: species or system rat. Conditions: p<0.01.
Data set [4] has as its system SH rats. As to the kind of experiment: Tail cuff blood pressure in SH adult rats given 3% β-GPA (Example 4). The data set is classed as in vivo, rat. Particulars: 3% β-GPA in feed, tailcuff method. Here is the method:
A total of 24 SH adult rats are divided into 4 groups: the test group is given 3% β-GPA , a second group is given 3% creatine, a third group is given 3% creatine +3% β-GPA; and a control group receives only normal feed. SH rats are usually also associated with high creatine kinase levels, although it is unknown whether this is cause or result of the spontaneous high blood pressure. […] Blood pressure was measured at the tail using standard methods (tailcuff method). In the control group, the blood pressure rises. An absence in the rise of blood pressure or even a reduction in the blood pressure in the test group indicates the blood pressure lowering effect of β-GPA. In order to exclude a possible effect of creatine deficiency or a possible effect of creatine itself on the blood pressure level, the two additional control groups (3% creatine or 3% creatine +3% β-GPA).

Data set [5] relates to Spontaneous Hypertension (SH) rats. As to the kind of experiment: Blood pressure of non-obese SH rats on creatine-free diet with 0.1% β-guanidinopropionic acid. The data set is classed as in vivo, rat. Particulars: feed contained 0.1% β-guanidinopropionic acid. An excerpt:
The effects of β-guanidinopropionic acid can not be explained by, for example, a reduction in weight.

The nature of data set [6]: Certified toxicological testing of marketed β-guanidinopropionic acid. Conditions: preliminary tests of product marketed for human use.
The conditions of data set [7]: cited from earlier work.
Data set [8] concerns creatine kinase. Conditions: creatine kinase reaction; cited from earlier work.
The test system of data set [9] is myocardial phosphocreatine and creatine. Conditions: high doses; cited from earlier work.
The subject of data set [10] is rats. Conditions: 1% in rat chow, up to 8 weeks of feeding; cited from earlier work.
In data set [11] the test system is ADP-dependent platelet aggregation. Briefly: Blood CK titration at 1 μmol/L ADP, platelet aggregation (pilot experiment). The class given is cell-based.

As for `O=[N+]([O-])c1ccc(F)c([N+](=O)[O-])c1` [DNFB, dinitrofluorobenzene], the results for the “Mean inhibition of contraction” value in data set [1] (blacks) and in [1] (whites) were 0.32 and 0.90, respectively.
With `NC(N)=NCCC(=O)O` [β-GPA, 3-(diaminomethylideneamino)propanoic acid], the Weight changes entry in data set [2] (diet with β-GPA) was “no significant weight changes”. The Systolic pressure reduction in [2] (diet with β-GPA vs controls, 4 weeks, tail cuff, mean (SEM), N=8 per group, p<0.001) is listed as −42.7 (5.5) mm Hg. Also, the Diastolic pressure reduction in data set [2] (diet with β-GPA vs controls, tail cuff, mean (SEM), p<0.001) is −35.3 (4.8) mm Hg. The “Residual contractility after the CK inhibitor DNFB, versus controls” value in data set [3] (mesenteric arteries of rats treated with β-GPA compared to controls, DNFB, mean (SEM)) is −41.3 (13.0) %. Besides, in [3] (rats treated with β-GPA before sacrifice, in vitro incubation with dinitrofluorobenzene, N=5 to 6 per group), the “Vasodilation of mesenteric arteries compared to controls” value is “significantly increased”. Moreover, the “Blood pressure level versus control SH rats” value in data set [4] is “lower than that of the control SH rats”. In addition, the “Blood pressure rise characteristic for SH rats” value in [5] is “did not show blood pressure rise”. Further, in [6], the Certified toxicological testing result was “passed certified toxicological testing”. Besides, in [7], the Solubility in water entry was “up to 50 mg/ml”. Besides, the “in vitro Vmax relative to the Vmax values of creatine and phosphocreatine” value in data set [8] is on record as less than 1%. The “Reduction of myocardial phosphocreatine and creatine concentrations” value in data set [9] was “up to 80%”. The “Cardiac function or sprint capacity in vivo” value in [10] was “does not lead to reduced cardiac function or overtly reduced sprint capacity”.
On to `CN(CC(=O)O)C(=N)NP(=O)(O)O` [CrP, phosphocreatine], for which the “Inhibition of ADP-dependent platelet aggregation with increasing CK” value in [11] is “greater inhibition of ADP-dependent platelet aggregation”.
